Assay results published in patent US9844656B2, “Localization of agents at a target site with a composition and an energy source” (The Regents of the University of California, priority 2010, dated 2017).

Assays:
NDL cells = assay: Intracellular trafficking and subcellular localization of doxorubicin; format: cell-based; conditions: post incubation at 37° C.
[1] = Ex vivo imaging of doxorubicin accumulation in mouse heart; conditions: 40 min post administration
Procedure: FIG. 15. Ex vivo imaging of doxorubicin accumulation in mouse heart after liposomes were injected into the tail vein and allowed to circulate. Heart was removed after euthanasia to assess fluorescence. a) Doxorubicin fluorescence in hearts of mice injected with liposomal doxorubicin in lyso-temperature sensitive liposomes when Dox was loaded with ammonium sulfate method (ASDox-LTSLs) or loaded in liposomes containing 100 mM copper/270 mM TEA (CuDox-LTSLs), and loaded in temperature sensitive liposomes with 25% cholesterol containing 100 mM copper/270 mM TEA (CuDox-TSLs+25% chol) compared to those injected with free Dox. Animals were euthanized 40 min post administration of free or liposomal doxorubicin. Animals were perfused with saline and hearts were dissected prior to Maestro imaging. Statistical analyses were performed using one-way ANOVA followed by a Tukey Post Hoc test. *p<0.05, **p<0.01. Inset images of heart acquired by Maestro imaging system (white indicates higher doxorubicin fluorescence intensity).

[2] = mouse, in vivo
[3] = tested on: MET-1^fvb2 mammary carcinoma cells; assay: In vitro viability assay (MTT); format: cell-based, mouse; conditions: Met-1 cell line, 72 hours, read-out: IC50 (cytotoxicity)
Procedure: MET-1^fvb2 mammary carcinoma cells were obtained from the Alexander Borowsky Laboratory (UC Davis). MET-1 cells were plated at 2000 cells in 50 μl media per well in 96-well tissue culture plates in high glucose Dulbecco's Modified Eagle's Medium (DMEM, Invitrogen, Carlsbad, Calif.) supplemented with 1% PenStrep and 10% FBS. Cells were given six hours to attach to the plate surface. Treatments were added to each well in 100 μl media and experiments were performed in triplicate. Doxil®, a commercial product of ALZA corporation and manufactured by Centocor Ortho Biotech, was purchased from Cardinal Health Care (Dublin, Ohio) and the in vitro viability was compared with the liposomal copper-doxorubicin.
Plates were incubated for 72 hours at 37° C. in 5% CO2. 3-(4,5-dimethylthiazol-2-yl)-2,5-diphenyltetrazolium bromide (MTT, Invitrogen, Carlsbad, Calif.) reagent was added to media at a concentration of 0.5 mg/ml, and cells were incubated 2 hours at 37° C. in 5% CO2. […] Absorbance was measured using Tecan Infinite® M1000 Microplate Reader (San Jose, Calif.) at wavelength 570 nm (reference of 670 nm). Best-fit curves and IC50 values were calculated for concentration-response curves using GraphPad Prism software (GraphPad Inc., La Jolla, Calif.). Average IC50 values calculated from a minimum of three replicate experiments for each preparation.

increase in cardiac accumulation of doxorubicin compared to liposomal copper-doxorubicin in temperature-sensitive liposomes [1]: 4 fold
skin fluorescence trend [2]: decreasing with time
Structure (SMILES): COc1cccc2c1C(=O)c1c(O)c3c(c(O)c1C2=O)C[C@@](O)(C(=O)CO)C[C@@H]3O[C@H]1C[C@H](N)[C@H](O)[C@H](C)O1.Cl [free doxorubicin, Doxorubicin hydrochloride]
time at which the nucleus showed doxorubicin fluorescence (NDL cells): 15 min
IC50 [3]: 20 ± 10 nM
